Read-outs that look alike come from different tables or passages of the source.
What was measured:
Test in all cases: Kinase profile (33P ATP filter binding)
Format in all cases: biochemical
CK1γ2 = CK1γ2 (Homo sapiens, UniProt P78368)
Description: (§1) The compounds were diluted to the appropriate concentration. The compounds were added to a “mother plate” consisting of samples, controls, and blanks. These serve as the source for “daughter plates” which are stored at −20 °C until assay initiation. Protein Kinases: Enzyme/Substrate mixture was added to the compound, and the compounds were incubated for five minutes at room temperature (RT). ^33P ATP was added to the compounds to initiate the assay. Orthophosphoric acid was added to the compounds to halt the assay. Assay components were harvested onto P81 filter plates, filter plates were air-dried, scintillation fluid was added to plates, and counts were read on a Topcount NXT. A mean percentage activity was calculated.

CSK = CSK (Homo sapiens, UniProt P41240)
Description: as §1

MARK1 = MARK1 (Homo sapiens, UniProt Q9P0L2); settings: read-out: Remaining protein kinase activity
Description: as §1

MKK6 = molecular target: T1, MKK6 (Homo sapiens, UniProt P52564); settings: read-out: Remaining protein kinase activity
T1 sequence (P52564 1-334): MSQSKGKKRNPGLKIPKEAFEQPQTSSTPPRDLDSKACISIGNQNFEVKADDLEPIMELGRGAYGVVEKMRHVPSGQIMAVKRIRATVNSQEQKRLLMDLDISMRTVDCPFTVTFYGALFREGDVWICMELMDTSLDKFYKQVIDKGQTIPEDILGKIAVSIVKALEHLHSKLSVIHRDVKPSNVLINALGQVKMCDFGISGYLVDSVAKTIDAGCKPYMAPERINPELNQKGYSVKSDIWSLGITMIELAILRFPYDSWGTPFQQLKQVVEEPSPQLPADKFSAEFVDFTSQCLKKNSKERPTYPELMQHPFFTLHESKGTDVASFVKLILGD
Description: as §1

MSK1 = MSK1 (Homo sapiens, UniProt O75582); settings: read-out: Remaining protein kinase activity
Description: as §1

MST4 = MST4 (Homo sapiens, UniProt Q9P289); settings: read-out: Remaining protein kinase activity
Description: as §1

PDK1 = molecular target: T2, PDK1 (Homo sapiens, UniProt O15530); settings: read-out: Remaining protein kinase activity
T2 sequence (O15530 1-556): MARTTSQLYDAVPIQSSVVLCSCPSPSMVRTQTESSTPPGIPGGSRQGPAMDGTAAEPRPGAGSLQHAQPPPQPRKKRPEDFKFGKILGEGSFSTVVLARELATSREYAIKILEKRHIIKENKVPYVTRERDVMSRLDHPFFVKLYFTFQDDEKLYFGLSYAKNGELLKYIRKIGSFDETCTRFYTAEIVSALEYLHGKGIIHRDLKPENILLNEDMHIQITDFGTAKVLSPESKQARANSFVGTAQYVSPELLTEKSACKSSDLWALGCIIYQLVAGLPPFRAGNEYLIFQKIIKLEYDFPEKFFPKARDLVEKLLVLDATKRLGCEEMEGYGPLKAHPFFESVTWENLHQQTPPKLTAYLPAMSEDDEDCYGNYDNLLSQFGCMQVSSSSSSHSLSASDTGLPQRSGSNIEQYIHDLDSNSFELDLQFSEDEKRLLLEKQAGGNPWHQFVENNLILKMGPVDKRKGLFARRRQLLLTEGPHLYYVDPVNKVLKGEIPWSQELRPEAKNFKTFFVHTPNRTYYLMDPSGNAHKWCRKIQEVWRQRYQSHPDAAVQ
Description: as §1

PKBa = PKBa (Homo sapiens, UniProt P31749); settings: read-out: Remaining protein kinase activity
Description: as §1

SGK1 = molecular target: T3, SGK1 (Homo sapiens, UniProt O00141); settings: read-out: Remaining protein kinase activity
T3 sequence (O00141 1-431): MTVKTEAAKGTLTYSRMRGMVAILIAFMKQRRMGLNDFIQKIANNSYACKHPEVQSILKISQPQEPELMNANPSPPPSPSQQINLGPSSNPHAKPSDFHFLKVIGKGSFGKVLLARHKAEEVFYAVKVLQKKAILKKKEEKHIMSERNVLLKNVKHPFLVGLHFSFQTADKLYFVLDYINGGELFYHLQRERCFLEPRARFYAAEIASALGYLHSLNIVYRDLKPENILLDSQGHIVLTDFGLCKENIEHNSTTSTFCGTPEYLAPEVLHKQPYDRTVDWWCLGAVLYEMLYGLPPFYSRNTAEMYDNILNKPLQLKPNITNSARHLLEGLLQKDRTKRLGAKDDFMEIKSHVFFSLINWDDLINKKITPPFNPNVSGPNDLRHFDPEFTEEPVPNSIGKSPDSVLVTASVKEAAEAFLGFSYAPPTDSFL
Description: as §1

ZAP70 = molecular target: T4, ZAP70 (Homo sapiens, UniProt P43403); settings: read-out: Remaining protein kinase activity
T4 sequence (P43403 1-619): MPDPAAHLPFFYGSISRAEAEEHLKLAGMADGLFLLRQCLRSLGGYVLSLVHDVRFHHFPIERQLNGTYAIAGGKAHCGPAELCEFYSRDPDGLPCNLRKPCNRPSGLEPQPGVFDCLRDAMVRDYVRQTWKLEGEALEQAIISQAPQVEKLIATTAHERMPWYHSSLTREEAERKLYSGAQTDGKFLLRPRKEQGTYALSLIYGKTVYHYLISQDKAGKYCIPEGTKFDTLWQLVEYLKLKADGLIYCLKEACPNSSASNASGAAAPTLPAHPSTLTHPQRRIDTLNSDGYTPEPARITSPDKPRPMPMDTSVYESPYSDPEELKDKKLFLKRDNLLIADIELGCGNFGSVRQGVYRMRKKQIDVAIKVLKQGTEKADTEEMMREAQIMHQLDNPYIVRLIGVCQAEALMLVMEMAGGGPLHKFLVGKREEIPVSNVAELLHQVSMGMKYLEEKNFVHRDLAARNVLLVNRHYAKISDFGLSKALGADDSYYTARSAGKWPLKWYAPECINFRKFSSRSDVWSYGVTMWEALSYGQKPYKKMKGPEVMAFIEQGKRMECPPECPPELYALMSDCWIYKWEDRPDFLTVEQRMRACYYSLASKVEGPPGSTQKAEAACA
Description: as §1

Sequence of MARK1 (Q9P0L2 whole entry): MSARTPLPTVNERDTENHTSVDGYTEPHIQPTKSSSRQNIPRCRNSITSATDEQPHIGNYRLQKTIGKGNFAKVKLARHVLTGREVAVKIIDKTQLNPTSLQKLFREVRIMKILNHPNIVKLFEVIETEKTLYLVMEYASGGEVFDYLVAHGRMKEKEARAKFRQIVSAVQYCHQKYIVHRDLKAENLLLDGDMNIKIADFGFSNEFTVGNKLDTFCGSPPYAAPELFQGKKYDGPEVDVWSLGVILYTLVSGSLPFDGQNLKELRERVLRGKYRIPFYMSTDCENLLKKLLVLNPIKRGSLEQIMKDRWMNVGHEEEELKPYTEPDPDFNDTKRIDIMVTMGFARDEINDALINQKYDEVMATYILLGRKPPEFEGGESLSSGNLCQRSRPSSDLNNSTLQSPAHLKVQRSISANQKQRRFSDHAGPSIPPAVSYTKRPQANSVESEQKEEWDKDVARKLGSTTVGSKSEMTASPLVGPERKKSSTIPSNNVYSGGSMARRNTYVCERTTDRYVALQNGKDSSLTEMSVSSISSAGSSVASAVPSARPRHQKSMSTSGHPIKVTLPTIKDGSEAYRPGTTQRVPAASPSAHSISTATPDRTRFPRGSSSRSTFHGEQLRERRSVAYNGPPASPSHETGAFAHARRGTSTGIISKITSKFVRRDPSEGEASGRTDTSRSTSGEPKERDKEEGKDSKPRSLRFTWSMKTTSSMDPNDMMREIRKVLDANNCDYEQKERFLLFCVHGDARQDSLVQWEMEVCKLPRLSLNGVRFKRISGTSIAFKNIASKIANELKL
Sequence of PKBa (P31749 whole entry): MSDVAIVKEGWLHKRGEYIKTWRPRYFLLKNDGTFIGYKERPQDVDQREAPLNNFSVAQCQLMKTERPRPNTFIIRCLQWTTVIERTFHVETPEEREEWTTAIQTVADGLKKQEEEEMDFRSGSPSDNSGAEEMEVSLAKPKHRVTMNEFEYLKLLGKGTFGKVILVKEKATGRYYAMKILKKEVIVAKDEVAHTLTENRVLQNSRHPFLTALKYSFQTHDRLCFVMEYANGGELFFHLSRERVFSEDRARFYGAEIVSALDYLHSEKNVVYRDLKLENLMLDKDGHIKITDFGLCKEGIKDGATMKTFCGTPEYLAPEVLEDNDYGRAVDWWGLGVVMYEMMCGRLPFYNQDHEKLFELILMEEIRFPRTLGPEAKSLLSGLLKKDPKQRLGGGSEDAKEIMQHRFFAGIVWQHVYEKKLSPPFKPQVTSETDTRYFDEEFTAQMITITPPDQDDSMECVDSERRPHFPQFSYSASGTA
Sequence of MSK1 (O75582 whole entry): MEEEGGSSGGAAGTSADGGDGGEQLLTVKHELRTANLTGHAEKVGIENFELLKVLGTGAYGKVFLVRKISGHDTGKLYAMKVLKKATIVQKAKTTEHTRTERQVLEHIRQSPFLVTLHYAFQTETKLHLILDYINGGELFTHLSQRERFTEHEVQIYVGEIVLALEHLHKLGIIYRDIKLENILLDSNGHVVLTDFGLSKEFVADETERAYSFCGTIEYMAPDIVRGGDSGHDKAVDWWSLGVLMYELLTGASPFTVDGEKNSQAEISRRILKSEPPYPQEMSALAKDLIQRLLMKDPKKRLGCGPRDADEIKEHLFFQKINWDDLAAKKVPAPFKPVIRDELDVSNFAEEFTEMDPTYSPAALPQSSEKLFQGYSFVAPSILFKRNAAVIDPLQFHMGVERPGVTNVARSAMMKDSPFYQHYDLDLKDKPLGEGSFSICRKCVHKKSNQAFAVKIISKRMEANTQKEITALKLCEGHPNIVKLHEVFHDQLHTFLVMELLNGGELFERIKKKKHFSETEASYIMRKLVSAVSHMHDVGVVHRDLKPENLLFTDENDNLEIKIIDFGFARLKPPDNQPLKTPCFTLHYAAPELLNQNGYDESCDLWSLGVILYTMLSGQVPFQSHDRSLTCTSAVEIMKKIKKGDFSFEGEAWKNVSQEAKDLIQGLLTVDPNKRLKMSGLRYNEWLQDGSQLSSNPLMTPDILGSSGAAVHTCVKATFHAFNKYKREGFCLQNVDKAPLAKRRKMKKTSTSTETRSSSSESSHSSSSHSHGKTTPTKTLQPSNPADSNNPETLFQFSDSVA
Sequence of CSK (P41240 whole entry): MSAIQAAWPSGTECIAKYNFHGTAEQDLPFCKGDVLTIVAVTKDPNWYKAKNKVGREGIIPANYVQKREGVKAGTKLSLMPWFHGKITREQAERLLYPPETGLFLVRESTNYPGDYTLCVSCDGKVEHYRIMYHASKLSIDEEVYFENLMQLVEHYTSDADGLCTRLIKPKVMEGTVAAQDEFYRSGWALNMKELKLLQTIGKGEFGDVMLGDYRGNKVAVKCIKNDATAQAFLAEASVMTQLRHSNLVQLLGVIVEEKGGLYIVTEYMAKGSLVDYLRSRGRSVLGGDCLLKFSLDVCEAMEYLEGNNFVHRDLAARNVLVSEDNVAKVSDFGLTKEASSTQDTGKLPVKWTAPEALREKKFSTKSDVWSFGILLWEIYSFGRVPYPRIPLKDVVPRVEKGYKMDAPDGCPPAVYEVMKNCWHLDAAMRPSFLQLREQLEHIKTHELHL
Sequence of CK1γ2 (P78368 whole entry): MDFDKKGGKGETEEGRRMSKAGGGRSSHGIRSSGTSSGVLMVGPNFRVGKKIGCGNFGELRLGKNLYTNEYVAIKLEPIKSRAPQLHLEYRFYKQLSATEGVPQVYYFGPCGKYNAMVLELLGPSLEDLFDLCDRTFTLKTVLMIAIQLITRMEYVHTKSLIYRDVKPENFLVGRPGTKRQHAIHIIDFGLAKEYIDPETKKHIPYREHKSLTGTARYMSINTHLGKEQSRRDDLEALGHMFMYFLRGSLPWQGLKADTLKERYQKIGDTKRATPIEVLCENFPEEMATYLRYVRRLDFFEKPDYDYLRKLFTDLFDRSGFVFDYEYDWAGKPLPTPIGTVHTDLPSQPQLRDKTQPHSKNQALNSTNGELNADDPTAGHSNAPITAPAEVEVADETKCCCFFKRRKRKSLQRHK
Sequence of MST4 (Q9P289 whole entry): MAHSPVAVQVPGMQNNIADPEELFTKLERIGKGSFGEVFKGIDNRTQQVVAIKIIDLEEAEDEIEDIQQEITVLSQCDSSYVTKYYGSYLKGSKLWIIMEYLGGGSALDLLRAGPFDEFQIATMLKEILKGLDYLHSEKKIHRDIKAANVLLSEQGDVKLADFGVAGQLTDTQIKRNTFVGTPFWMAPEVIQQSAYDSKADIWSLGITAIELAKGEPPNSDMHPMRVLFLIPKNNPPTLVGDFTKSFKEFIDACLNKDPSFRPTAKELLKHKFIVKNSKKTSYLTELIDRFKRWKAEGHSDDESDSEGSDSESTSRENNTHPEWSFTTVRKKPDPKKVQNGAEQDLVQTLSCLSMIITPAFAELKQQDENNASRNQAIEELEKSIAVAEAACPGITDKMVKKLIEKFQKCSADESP

Q: With `COc1ccc2sc(-c3cncc(N)c3)nc2c1` [compound 1, 5-(5-Methoxybenzo[d]thiazol-2-yl)pyridin-3-amine] as the compound, how does the “Remaining protein kinase activity” value (CK1γ2; 1 μM) read?
A: 108%

Q: What about the “Remaining protein kinase activity” value (CK1γ2; 100 μM) of the same compound?
A: 24%

Q: And the “Remaining protein kinase activity” value (CSK; 1 μM)?
A: 116%

Q: What about the “Remaining protein kinase activity” value (CSK; 100 μM) of the same compound?
A: 78%

Q: What about the remaining activity at 1 µM (MARK1; MARK1, 1 μM) of the same compound?
A: 122%

Q: What about the remaining activity at 100 µM (MARK1; MARK1, 100 μM) of the same compound?
A: 69%

Q: What about the remaining activity at 1 µM (MKK6; MKK6, 1 μM) of the same compound?
A: 120%

Q: And the remaining activity at 100 µM (MKK6; MKK6, 100 μM)?
A: 118%

Q: And the remaining activity at 1 µM (MSK1; MSK1, 1 μM)?
A: 109%

Q: What about the remaining activity at 100 µM (MSK1; MSK1, 100 μM) of the same compound?
A: 60%

Q: And the remaining activity at 1 µM (MST4; MST4, 1 μM)?
A: 101%

Q: And the remaining activity at 100 µM (MST4; MST4, 100 μM)?
A: 72%

Q: And the remaining activity at 1 µM (PDK1; PDK1, 1 μM)?
A: 104%

Q: What about the remaining activity at 100 µM (PDK1; PDK1, 100 μM) of the same compound?
A: 67%

Q: What about the remaining activity at 1 µM (PKBa; PKBa, 1 μM) of the same compound?
A: 120%

Q: And the remaining activity at 100 µM (PKBa; PKBa, 100 μM)?
A: 72%

Q: What about the remaining activity at 1 µM (SGK1; SGK1, 1 μM) of the same compound?
A: 99%

Q: What about the remaining activity at 100 µM (SGK1; SGK1, 100 μM) of the same compound?
A: 62%

Q: What about the remaining activity at 1 µM (ZAP70; ZAP70, 1 μM) of the same compound?
A: 119%

Q: And the remaining activity at 100 µM (ZAP70; ZAP70, 100 μM)?
A: 63%

Q: Which results are given for `COc1ccc2sc(-c3cncc(NC(C)=O)c3)nc2c1` [PST-001, N-(5-(5-Methoxybenzo[d]thiazol-2-yl)pyridin-3-yl)acetamide]?
A: Remaining protein kinase activity (CK1γ2; 1 μM): 114%; Remaining protein kinase activity (CK1γ2; 100 μM): 101%; Remaining protein kinase activity (CSK; 1 μM): 121%; Remaining protein kinase activity (CSK; 100 μM): 126%; remaining activity at 1 µM (MARK1): 122%; remaining activity at 100 µM (MARK1): 110%; remaining activity at 1 µM (MKK6): 140%; remaining activity at 100 µM (MKK6): 115%; remaining activity at 1 µM (MSK1): 104%; remaining activity at 100 µM (MSK1): 64%; remaining activity at 1 µM (MST4): 112%; remaining activity at 100 µM (MST4): 113%; remaining activity at 1 µM (PDK1): 110%; remaining activity at 100 µM (PDK1): 105%; remaining activity at 1 µM (PKBa): 116%; remaining activity at 100 µM (PKBa): 106%; remaining activity at 1 µM (SGK1): 102%; remaining activity at 100 µM (SGK1): 82%; remaining activity at 1 µM (ZAP70): 123%; remaining activity at 100 µM (ZAP70): 131%

Reference: paper PMC8617627, “Novel DYRK1A Inhibitor Rescues Learning and Memory Deficits in a Mouse Model of Down Syndrome” (Pharmaceuticals, 2021)
